Experimental data: patent US10273226B2, “Pyrazolyl-heteroarylamides as pesticides” (Bayer Animal Health GmbH, priority 2014, dated 2019)

Experiments:
Assay type in all cases: in vivo
Rhipicephalus sanguineus = Rhipicephalus sanguineus in vitro contact test with adult brown dog ticks; conditions: application rate 5 μg/cm^2 (500 g/ha); after 48 h; ticks dead or moribund
Outline: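 Test tubes (25 ml) were coated by dissolving active ingredient in acetone p.a., diluting to the required concentration, and spreading 250 μl over the inner walls and base on an orbital shaker at 30 rpm for 2 h. Once dry, 5-10 adult Rhipicephalus sanguineus were added, and tubes were capped with perforated lids and kept horizontal in darkness at room temperature. At 48 h, ticks were knocked down and heated at 45-50° C. for up to 5 min. Those unable to climb away were counted dead or moribund, and efficacy ran from 0% to 100%.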

Boophilus microplus = Boophilus microplus injection test; conditions: application rate 20 μg/animal; injection into abdomen; assessed after 7 days
Outline: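 Scoring was by fertile egg laying 7 days after injection, holding doubtful eggs until larvae hatched at about 42 days; 100% = no fertile eggs, 0% = all eggs fertile. Groups of 5 engorged adult female cattle ticks were each injected abdominally with 1 μl of compound in DMSO.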

Lucilia cuprina = Lucilia cuprina test; conditions: application rate 100 ppm; L1 larvae; after 2 days
Outline: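 About 20 L1 larvae placed in vessels with minced horsemeat treated with compound (DMSO concentrate diluted in water) at the desired concentration. Kill (%) scored after 2 days; 100% means all larvae dead, 0% none.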

Tetranychus urticae = Tetranychus urticae spray test, OP-resistant; conditions: application rate 100 g/ha; after 6 days
Outline: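 Bean leaf discs (Phaseolus vulgaris) carrying all stages of OP-resistant mites are sprayed with compound formulated in solvent and emulsifier-containing water. Efficacy (% mites killed) is scored after 6 days.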

[1] = tested on: Anopheles funestus strain FUMOZ-R; assay: Anopheles test (ANPHFU surface treatment); conditions: 24 hours after contact, read-out: efficacy (mortality in %)
Procedure: Anopheles Test (ANPHFU Surface Treatment)
Solvent: acetone+2000 ppm rapeseed oil methyl ester (RME)
To produce an appropriate active ingredient formulation, the active ingredient is dissolved in the solvent (2 mg/ml). The active ingredient formulation is pipetted onto a glazed tile and, after it has dried off, adult mosquitoes of the species Anopheles funestus strain FUMOZ-R (Hunt et al., Med Vet Entomol. 2005 September; 19 (3):271-5) are placed onto the treated tile. The exposure time is 30 minutes.
24 hours after contact with the treated surface, mortality in % is determined. 100% means that all the mosquitoes have been killed; 0% means that none of the mosquitoes have been killed.

Cn1nc(C(F)(F)C(F)(F)F)c(C(F)(F)F)c1-n1cc(-c2cccc(NC(=O)c3ccncc3)c2)cn1 [Example 1-001, N-{3-[2′-Methyl-5′-(pentafluoroethyl)-4′-(trifluoromethyl)-2′H-1,3′-bipyrazol-4-yl]-phenyl}isonicotinamide]
efficacy (Rhipicephalus sanguineus): 100% | efficacy (laying of fertile eggs) (Boophilus microplus): 100% | efficacy (kill in %) (Lucilia cuprina): 100% | efficacy (Tetranychus urticae): 100% | mortality at 20 mg/m2 ([1]; application rate 20 mg/m^2, exposure 30 minutes): 90 to 100% | mortality at 100 mg/m2 ([1]; application rate 100 mg/m^2, exposure 30 minutes): 90 to 100%
